Key:
Test in all cases: pTyr-Var library bacterial peptide display kinase screen (enrichment scores)
EPHB2 kinase domain = type: biochemical, human; details: sheet EPHB2; effect of variant peptide relative to its reference peptide in the pTyr-Var library screen (enrichment scores)
c-Src kinase domain = c-Src kinase domain (Homo sapiens, UniProt P12931); type: biochemical; details: sheet "Src";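 note: log2 fold change in enrichment of variant over reference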
EPHB1 kinase domain = type: biochemical, human; details: for Screen: sheet EPHB1, effect of the variant peptide relative to its reference peptide in the pTyr-Var library screen (enrichment scores)
Fer kinase domain = type: biochemical, mouse; details: sheet "Fer"; value of the variant peptide against its reference peptide in the pTyr-Var library screen with Fer
c-Abl kinase domain = target: T1, c-Abl kinase domain (Mus musculus, UniProt P00520); type: biochemical;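 for screen: log2 fold change in enrichment of variant over reference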
T1 sequence (P00520 242-493 limits assumed): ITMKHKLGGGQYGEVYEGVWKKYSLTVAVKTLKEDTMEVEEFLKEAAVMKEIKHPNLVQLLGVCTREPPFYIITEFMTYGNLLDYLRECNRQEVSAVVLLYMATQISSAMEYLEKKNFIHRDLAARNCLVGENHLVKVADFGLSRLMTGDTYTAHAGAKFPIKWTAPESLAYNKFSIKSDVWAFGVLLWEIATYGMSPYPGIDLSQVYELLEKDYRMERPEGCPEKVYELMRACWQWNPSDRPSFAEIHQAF

[1] = variant peptide versus its reference peptide in the pTyr-Var library screen
[2] = effect of the variant peptide relative to its reference peptide in the pTyr-Var library screen
[3] = fig5-data2, sheet "Abl", Screen for the variant/reference peptide pair, pTyr-Var library
[4] = sheet "Abl", effect of variant peptide relative to its reference peptide in pTyr-Var library screen (enrichment)

**Q.** With LHVKMYNFLRS [ADGRG7_Y760_R756H] as the sequence, how does the Screen (EPHB2 kinase domain) read?
**A.** Its Screen is -0.4432.

**Q.** LINSVYGCSRQ [TMPRSS6_Y290_T287N] was tested. Which Screen (c-Src kinase domain; [1]) did it give?
**A.** Its Screen is 1.631.

**Q.** Which Screen (c-Src kinase domain; [2]) does the source give for LITTLYISFLG [KCNQ1_Y267_G269S] here?
**A.** Its Screen is -1.106.

**Q.** What does the source list for LKDEDYLKDTV [HAUS3_Y582_I586T]?
**A.** Screen (EPHB2 kinase domain): 0.5716; Screen (EPHB1 kinase domain): 0.8437

**Q.** LLEGKYEWQEV [CDKN1B_Y74_P69L] was tested. Which Screen (Fer kinase domain) did it give?
**A.** The Screen was 1.551.

**Q.** For LPEHPYHSRPR [NDUFA8_Y142_N140H], which Screen (c-Src kinase domain; [1]) is on record?
**A.** The Screen was -0.5324.

**Q.** What about the Screen (c-Abl kinase domain; [3]) of the same sequence?
**A.** Its Screen is -0.8491.

**Q.** What about the Screen (EPHB2 kinase domain) of the same sequence?
**A.** The Screen was 1.643.

**Q.** With LTVVIYVLVGR [EPHA3_Y561_I564V] as the sequence, how does the Screen (EPHB2 kinase domain) read?
**A.** Its Screen is -4.573.

**Q.** And the Screen (Fer kinase domain)?
**A.** Its Screen is -2.144.

**Q.** How did the Screen (EPHB2 kinase domain) turn out when LVRAFYCERRW [CARD11_Y970_R975W] was run?
**A.** The Screen was -0.93.

**Q.** For LWQSIYNLDAE [TNNT2_Y251_E254D], which Screen (c-Src kinase domain; [1]) is on record?
**A.** The Screen was 0.02036.

**Q.** How did the Screen (Fer kinase domain) turn out when MASISYDFCRV [BST2_Y6_T4I_YF] was run?
**A.** Its Screen is -0.4486.

**Q.** With NHQFDYTFHWT [CSNK1A1_Y294_D297H_YF] as the sequence, how does the Screen (Fer kinase domain) read?
**A.** The Screen was 3.7.

**Q.** And the Screen (EPHB1 kinase domain)?
**A.** The Screen was 1.13.

**Q.** Which Screen (c-Abl kinase domain; [3]) does the source give for NSAFFYKTAEE [CCT6B_Y250_G247A] here?
**A.** The Screen was 0.06962.

**Q.** Which results are given for NTGGFYDLFGG [PTPN11_Y63_D61G_YF]?
**A.** Screen (c-Src kinase domain; [1]): -0.08944; Screen (Fer kinase domain): 1.072

**Q.** For NVSILYTASQA [CTNNA1_Y222_P219S], which Screen (c-Abl kinase domain; [3]) is on record?
**A.** The Screen was -0.9911.

**Q.** Which results are given for PADQAYSWFQH [NDST1_Y711_R709Q_YF]?
**A.** Screen (c-Src kinase domain; [1]): 1.532; Screen (Fer kinase domain): 0.5054

**Q.** With PGVNFYFQVSA [TTN_Y28166_R28168Q_YF] as the sequence, how does the Screen (c-Abl kinase domain; [4]) read?
**A.** Its Screen is -2.22.

**Q.** For PHMQTYEVDHN [SDHB_Y61_L65H], which Screen (EPHB2 kinase domain) is on record?
**A.** The Screen was 0.7041.

**Q.** How did the Screen (c-Abl kinase domain; [3]) turn out when PIGRKYKKVRF [F8_Y442_R437P] was run?
**A.** Its Screen is 0.1866.

**Q.** How did the Screen (EPHB2 kinase domain) turn out when PLCPDYQEPSR [DDR2_Y481_R478C] was run?
**A.** The Screen was 1.681.

**Q.** Which Screen (c-Src kinase domain; [1]) does the source give for PLSGEYFTLQI [TP53_Y327_D324S] here?
**A.** Its Screen is -0.1322.

**Q.** And the Screen (c-Abl kinase domain; [4])?
**A.** Its Screen is -0.7361.

**Q.** What about the “Screen (variant relative to reference peptide, measured in the pTyr-Var library screen)” value (EPHB1 kinase domain; sheet "EPHB1", variant seq vs reference seq, bacterial peptide display enrichment) of the same sequence?
**A.** Its value is 0.4408.

**Q.** Which Screen (c-Src kinase domain; [1]) does the source give for PNRILYGDFQQ [MYH7_Y715_R719Q] here?
**A.** Its Screen is -0.8592.

**Q.** How did the Screen (c-Src kinase domain; [1]) turn out when PNRILYRDFRQ [MYH7_Y715_G716R] was run?
**A.** The Screen was -3.613.

**Q.** With PRDGEYFTLQI [TP53_Y327_L323R] as the sequence, how does the Screen (c-Src kinase domain; [1]) read?
**A.** Its Screen is -0.0193.

**Q.** Which Screen (c-Abl kinase domain; [3]) does the source give for PSSRDYKDNIK [PIGN_Y227_H229D] here?
**A.** Its Screen is -1.292.

**Q.** With PVADPYDQSFE [P38A Y323] as the sequence, how does the “Enrichment score (mean)” value (c-Abl kinase domain; pTyr-Var library bacterial peptide display screen with c-Abl, 11-residue peptides (SITE_+/-5_AA) of annotated Abl substrate sites, sheet "Abl substrates", mean) read?
**A.** The value was 2.375.

**Q.** Which Screen (c-Src kinase domain; [2]) does the source give for PVQAVYQKVVA [HBB_Y131_A130V] here?
**A.** Its Screen is 1.787.

**Q.** Which Screen (EPHB1 kinase domain) does the source give for QDEHGYISLCF [HSPB1_Y133_R136L] here?
**A.** The Screen was 1.02.

**Q.** QDLLLYQTHSE [PKHD1_Y255_F253L] was tested. Which Screen (c-Src kinase domain; [1]) did it give?
**A.** The Screen was 0.9307.

**Q.** What about the Screen (EPHB2 kinase domain) of the same sequence?
**A.** The Screen was 1.452.

**Q.** What about the Screen (Fer kinase domain) of the same sequence?
**A.** The Screen was 1.348.

**Q.** Which Screen (c-Abl kinase domain; [3]) does the source give for QHVPDYRQNGF [PCDHGA1_Y890_V894G_YF] here?
**A.** Its Screen is -1.497.

**Q.** How did the Screen (c-Abl kinase domain; [3]) turn out when QKKPCYEIRWK [PDGFRB_Y562_R561C] was run?
**A.** Its Screen is 0.01021.

**Q.** Which results are given for QLQVFYATRDQ [MIPEP_Y579_L582R]?
**A.** Screen (c-Src kinase domain; [2]): -2.05; Screen (EPHB2 kinase domain): -1.278; Screen (Fer kinase domain): -2.265

**Q.** With QPRDIYHQTWA [GBA_Y244_G241R] as the sequence, how does the Screen (c-Src kinase domain; [2]) read?
**A.** The Screen was -0.7899.

**Q.** With QRVLLYVQRET [GRHL3_Y518_R520Q] as the sequence, how does the Screen (c-Abl kinase domain; [3]) read?
**A.** Its Screen is -0.6307.

**Q.** REETTYLPLTS [ICAM3_Y527_S525T] was tested. Which Screen (c-Src kinase domain; [2]) did it give?
**A.** The Screen was -0.5459.

**Q.** RGVVMYTSKDR [ZG16B_Y136_M133V] was tested. Which Screen (c-Abl kinase domain; [4]) did it give?
**A.** Its Screen is -3.766.

**Q.** For RKETFYILSCR [GUCY2C_Y681_T682I], which Screen (c-Src kinase domain; [2]) is on record?
**A.** Its Screen is -2.18.

**Q.** Which Screen (c-Abl kinase domain; [3]) does the source give for RVSSVYTRSTG [CCR5_Y339_A335V] here?
**A.** Its Screen is 1.763.

**Q.** How did the Screen (c-Src kinase domain; [1]) turn out when SEHLIYLEFKS [RASGRP1_Y215_T214I] was run?
**A.** The Screen was 0.01051.

**Q.** What about the Screen (c-Abl kinase domain; [3]) of the same sequence?
**A.** Its Screen is 0.2716.

**Q.** And the Screen (EPHB1 kinase domain)?
**A.** Its Screen is 0.7598.

**Q.** With SENFTYIWWLN [PSG4_Y271_K267E_YF] as the sequence, how does the Screen (c-Abl kinase domain; [3]) read?
**A.** The Screen was 0.9727.

**Q.** SFSGEYGSGGG [ZG16_Y30_G32S_YF] was tested. Which Screen (c-Abl kinase domain; [4]) did it give?
**A.** The Screen was -2.078.

**Q.** With SKLTIYDGRPS [MTM1_Y277_A279G] as the sequence, how does the Screen (c-Src kinase domain; [2]) read?
**A.** The Screen was -1.75.

**Q.** SLDLSYFHTSS [EMD_Y181_P183H_YF] was tested. Which Screen (c-Abl kinase domain; [3]) did it give?
**A.** Its Screen is -1.954.

**Q.** For SLIDMYSEVLA [OPA1_Y268_D273A], which Screen (c-Src kinase domain; [1]) is on record?
**A.** Its Screen is 1.458.

**Q.** TKDTFYQQPMF [GBA_Y451_K452Q] was tested. Which Screen (EPHB2 kinase domain) did it give?
**A.** Its Screen is 1.843.

**Q.** What about the Screen (Fer kinase domain) of the same sequence?
**A.** Its Screen is 2.731.

**Q.** With TKGNEYVFRVA [TTN_Y30829_E30825K] as the sequence, how does the Screen (c-Abl kinase domain; [4]) read?
**A.** Its Screen is -2.941.

**Q.** How did the Screen (c-Abl kinase domain; [3]) turn out when TKLKDYFIFNK [CCDC42_Y149_A144T_YF] was run?
**A.** Its Screen is -0.5052.

**Q.** TNFSLYLRSLE [MTM1_Y71_R69S_YF] was tested. Which Screen (c-Abl kinase domain; [3]) did it give?
**A.** The Screen was -0.4541.

**Q.** Which results are given for VKANTYEKFWL [GATM_Y100_P105L_YF]?
**A.** Screen (c-Src kinase domain; [2]): -1.276; Screen (Fer kinase domain): 2.288

**Q.** For VKFGAYINDFK [GLB1_Y488_N484K_YF], which Screen (c-Abl kinase domain; [3]) is on record?
**A.** The Screen was -0.5379.

**Q.** How did the Screen (c-Src kinase domain; [2]) turn out when VQEDIYDEFVV [ALDH2_Y332_E337V] was run?
**A.** Its Screen is 0.8946.

**Q.** And the Screen (Fer kinase domain)?
**A.** The Screen was 3.107.

**Q.** For VVQGLYKSMRK [KBTBD2_Y250_P254R], which Screen (c-Abl kinase domain; [3]) is on record?
**A.** Its Screen is 0.59.
